Data on three compounds can be found in article PMC10931682, “A Combination of Library Screening and Rational Mutagenesis Expands the Available Color Palette of the Smallest Fluorogen-Activating Protein Tag nanoFAST” (International Journal of Molecular Sciences, 2024).

Each structure is given as a SMILES string. Numbering of substitutions follows the chain as printed.

Assay [1] deals with T1, nanoFAST (Halorhodospira halophila, UniProt P16113, Q41K/E46Q/C69G/S72T/A84S/Y94W/T95A/F96I/D97P/Y98T/Q99S/M100R/T101G/M109L/S117R).
T1 construct: gene pyp; FAST (engineered PYP) lacking the first 27 residues, 98 aa; C-terminal tag of three glycines and six histidines; E. coli BL21(DE3), Ni purification
T1 sequence (P16113 28-125 Q41K/E46Q/C69G/S72T/A84S/Y94W/T95A/F96I/D97P/Y98T/Q99S/M100R/T101G/M109L/S117R): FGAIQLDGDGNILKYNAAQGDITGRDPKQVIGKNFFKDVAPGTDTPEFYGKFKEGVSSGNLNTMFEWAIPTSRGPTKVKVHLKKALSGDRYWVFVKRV
As to the kind of experiment: spectrofluorometric titration, plate reader. The class given is binding. The note with it: PBS pH 7.4, 25 °C, 0.10 µM protein; non-covalent fluorogen. The source says:
spectrofluorometric titration, plate reader on nanoFAST

The target of assay [2] is T2, nanoFAST (Halorhodospira halophila, UniProt P16113, C69G/Y94W/T95M/F96I/D97P/Y98T/Q99S/M100R/T101G).
T2 construct: gene pyp; FAST (engineered PYP) lacking the first 27 residues, 98 aa; C-terminal tag of three glycines and six histidines; E. coli BL21(DE3), Ni purification
T2 sequence (P16113 28-125 C69G/Y94W/T95M/F96I/D97P/Y98T/Q99S/M100R/T101G): T1 sequence (P16113 28-125 Q41K/E46Q/C69G/S72T/A84S/Y94W/T95A/F96I/D97P/Y98T/Q99S/M100R/T101G/M109L/S117R) with K14Q, Q19E, T45S, S57A, A68M, L82M, R90S
As to the kind of experiment: fluorescence enhancement screen, plate reader. To be noted: PBS pH 7.4, 10 µM fluorogen, 1 µM protein. The class given is binding.

As for `Cc1cc(/C=C2\SC(=S)NC2=O)c(C)cc1O` [HBR-2,5-DM], binding at nanoFAST [1] was put at a Kd of 0.5 ± 0.16 µM.

In the case of `COc1cc(/C=C2\SC(=S)NC2=O)c(OC)cc1O` [HBR-DOM2, 2,5-dimethoxy-4-hydroxy-arylidene-rhodanine], the Kd at nanoFAST [1] is 0.13 ± 0.01 µM. The “fluorescence enhancement screen, plate reader” value at nanoFAST [2] is reported as “significant decrease in fluorescence enhancement with the previously proposed fluorogen of the nanoFAST protein”.

On nanoFAST [1], `COc1cc(/C=C2\SC(=S)NC2=O)cc(OC)c1O` [HBR-DOM] came in with a dissociation constant Kd of 1.69 ± 0.32 µM.
